Test results: patent EP4585216A1, “HETEROCYCLIC COMPOUNDS FOR THE TREATMENT OF FATTY LIVER DISEASE” (ScandiEdge Therapeutics AB, priority 2024, dated 2025)
Where “and” joins values, the source holds several entries; their conditions need not be identical. Identical values can stand only once. Entries after “also recorded” stand apart in the source; their conditions may differ.

Tests used:
pyruvate kinase (PK) [1] = test: Pyruvate kinase activity in HepG2 WT protein lysate; format: biochemical; conditions: 10 µM
Method: (§1) HepG2 WT and HepG2 KO cells were lysed, and protein lysate was prepared with CelLytic M (C2978, Sigma-Aldrich) lysis buffer. Protein lysate was treated with 10 µM of the drugs and the pyruvate kinase activity on protein lysate was measured using Pyruvate Kinase Assay Kit (ab83432, abeam) following manufacturer's instruction. 2×10^4 HepG2 WT cells and 1×10^5 HepG2 KO cells were seeded into a 96-well plate for measuring pyruvate kinase activity in the cells. The cells were treated with 10-20µM of drugs for 4h and washed with 250µl PBS. Cells were lysed with 50 µl PK assay buffer (ab83432, abcam) and start reaction and kinetic O.D measurement was performed on 50µl PK assay buffer containing the assay component (ab83432, abcam). O.D values were measured with microplate reader (Hidex Sense Beta Plus) at 570nm wavelength. DMSO was used as control.
(§2) The effect of the target compounds was studied on liver cell line HepG2. HepG2 expresses two different pyruvate kinases (PK), pyruvate kinase muscle (PKM2) and pyruvate kinase liver (PKL). While most cells express PKM, liver cells further express PKL. […] In addition to HepG2 KO cell, HepG2 wild-type (HepG2 WT) cells were also used.

HepG2 cells [2] = test: TAG measurement in DNL steatosis model; format: cell-based
Method: (§3) HepG2 wild type cells were purchased from genome engineering company Synthego. Cells were maintained with growth media RPMI 1640 (R2405, Sigma-Aldrich) and supplemented with 10 % fetal bovine serum (FBS, F7524, Sigma-Aldrich), 1 % penicillin-streptomycin (P/S media, P4333, Sigma-Aldrich). Steatosis induction media was prepared as DMEM high glucose (D0819, Sigma-Aldrich) with 10% FBS, 1% P/S media supplemented with 10µg/ml insulin (I9278, Sigma-Aldrich), and 10µM T0901317 (T2320, Sigma-Aldrich) for one week. HepG2 cells were seeded 6×10^4 cells per well into a 96-well plate for TAG and MTT assay after steatosis and 1×10^6 cells per well into 6-well plate for western blot analysis after steatosis. HepG2 cells were incubated with steatosis induce media (SM) for one week by 3 day + 2 day + 2 day with total three times media exchange.
(§4) HepG2 cells were seeded at 6×10^4 cells per well into 96-well plate and induced steatosis for one week with designated concentration of small molecules (this will be referred to as a DNL steatosis model). After steatosis induction, cells were washed with 200 µl of PBS and triglyceride contents was measured by Triglyceride Assay Kit - Quantification (ab65336, Abeam) following manufacturer's instruction. Optical density (O.D) values were detected with microplate reader at 570 nm (Hidex Sense Beta Plus).
(§5) 5 mg/ml MTT (M2128, Sigma-Aldrich) solution in PBS (10 µL) was added to each well for MTT assay. After 1 hr, MTT solution and all media were removed from the wells. 100 µl of DMSO was added and mixed to dissolve the formazan crystals. Cell viability was analysed by measuring the absorbance of the dissolved formazan in a microplate reader at a wavelength of 570 nm with microplate reader (Hidex Sense Beta Plus). DMSO was used as control.

PKL [3] = test: Western blot of DNL steatosis model, PKL expression; format: cell-based; conditions: 5 µM
Method: as §3
(§6) After steatosis induction with designated concentration of compounds, whole cell lysate was prepared with CelLytic M (C2978, Sigma-Aldrich) buffer. SDS PAGE was performed on Mini-PROTEAN® TGX™ Precast Gels (Bio-Rad) and transferred using Trans-Blot® Turbo™ Transfer System (Bio-Rad). […] Protein band was detected with ImageQuantTMLAS 500 (29-0050-63, GE). […]

PKL [4] = target: T1, PKL (Homo sapiens, UniProt P30613); test: Cellular thermal shift assay (Cetsa), PKL; format: cell-based; conditions: HepG2 WT cells, 10 and 20 µM for 2 h, heat shock 60°C 5 min
T1 construct: host or cells: HepG2 wild-type cells
Method: (§7) HepG2 WT cells were trypsinized and transferred into 1.5ml tube at a concentration of 500,000 cells per ml. The cells were treated with 10µM and 20µM SET-62 in an 1.5 ml tube and incubated for 2 h at 37°C in an CO2 incubator. The tubes were exposed to heat shock at 60°C for 5 min with a pre-heated heat block. After centrifugation of the heated cells at 13,000 rpm for 1 min, the cells were lysed with 50 µl of Native lysis Buffer (ab156035, abeam). Centrifugation was performed again to purify soluble proteins in the lysed solution and 9 µl of each group were analysed using western blot. DMSO was used as control.

[5] = test system: fatty acid synthase (FASN); test: Western blot of DNL steatosis model, FASN expression; format: cell-based; conditions: 5 µM
Method: as §3, §6

[6] = target: T2, pyruvate kinase liver (PKL) (Homo sapiens, UniProt P30613); test: Pyruvate kinase activity in HepG2 PKM2 CRISPR KO protein lysate; format: biochemical
T2 construct: endogenous in cells; host or cells: HepG2 PKM2 CRISPR KO (HepG2 KO) cells; lysate in CelLytic M or treated whole cells
Method: as §1, §2

pyruvate kinase (PK) [7] = test: Pyruvate kinase activity in treated HepG2 WT cells; format: cell-based; conditions: 20 µM for 4 h
Method: as §1, §2

[8] = target: T2, pyruvate kinase liver (PKL); test: Pyruvate kinase activity in treated HepG2 PKM2 CRISPR KO cells; format: cell-based; conditions: 20 µM for 4 h
Method: as §1, §2

HepG2 cells [9] = test: MTT assay (cell viability) in DNL steatosis model; format: cell-based
Method: as §3, §4, §5

PKM2 [10] = test: Western blot of DNL steatosis model, PKM2 expression; format: cell-based; conditions: 5 µM
Method: as §3, §6

PKM2 [11] = target: T3, PKM2 (Homo sapiens, UniProt P14618); test: Cellular thermal shift assay (Cetsa), PKM2; format: cell-based; conditions: HepG2 WT cells, 10 and 20 µM for 2 h, heat shock 60°C 5 min
T3 construct: host or cells: HepG2 wild-type cells
Method: as §7

T2 sequence (P30613 1-543 isoform P30613-2): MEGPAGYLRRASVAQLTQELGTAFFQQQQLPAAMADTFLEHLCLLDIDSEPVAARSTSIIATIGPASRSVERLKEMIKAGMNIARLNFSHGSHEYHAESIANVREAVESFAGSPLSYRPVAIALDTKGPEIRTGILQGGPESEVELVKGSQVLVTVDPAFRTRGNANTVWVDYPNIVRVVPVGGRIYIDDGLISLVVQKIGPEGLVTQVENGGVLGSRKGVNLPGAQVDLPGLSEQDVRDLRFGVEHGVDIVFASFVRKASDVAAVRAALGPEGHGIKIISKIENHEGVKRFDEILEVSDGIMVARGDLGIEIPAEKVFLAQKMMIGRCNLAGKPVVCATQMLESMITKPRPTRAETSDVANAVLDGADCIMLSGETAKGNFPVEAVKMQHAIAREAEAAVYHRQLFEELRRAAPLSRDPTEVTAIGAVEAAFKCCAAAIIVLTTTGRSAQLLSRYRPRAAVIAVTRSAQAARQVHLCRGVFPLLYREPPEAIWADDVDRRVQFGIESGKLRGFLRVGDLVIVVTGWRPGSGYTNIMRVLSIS
T1 sequence (P30613 1-543 isoform P30613-2): as above
T3 sequence (P14618 2-531 limits assumed): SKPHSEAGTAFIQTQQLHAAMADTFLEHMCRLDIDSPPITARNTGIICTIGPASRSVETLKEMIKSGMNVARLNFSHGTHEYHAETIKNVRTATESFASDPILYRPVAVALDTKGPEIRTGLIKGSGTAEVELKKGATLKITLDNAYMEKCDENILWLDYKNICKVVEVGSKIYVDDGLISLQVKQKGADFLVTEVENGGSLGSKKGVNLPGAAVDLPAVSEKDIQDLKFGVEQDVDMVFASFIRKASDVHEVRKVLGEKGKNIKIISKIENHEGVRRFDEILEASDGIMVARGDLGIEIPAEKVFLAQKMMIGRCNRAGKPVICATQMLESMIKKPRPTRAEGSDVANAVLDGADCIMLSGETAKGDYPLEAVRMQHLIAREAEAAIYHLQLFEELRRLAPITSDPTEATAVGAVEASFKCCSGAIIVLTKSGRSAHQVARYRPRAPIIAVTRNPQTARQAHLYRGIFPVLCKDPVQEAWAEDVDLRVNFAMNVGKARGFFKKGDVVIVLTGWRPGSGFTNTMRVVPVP

- PK activity of HepG2 WT protein lysate (in words) (pyruvate kinase (PK) [1]; batches 4 and 5): highest inhibitory effect
- reduction in PK activity of HepG2 WT protein lysate (pyruvate kinase (PK) [1]; compared to the control (DMSO)): 59.9%
- decrease of the solubility of PKL (PKL [4]): ~ 38%
- PK activity of HepG2 KO protein lysate (in words) ([6]; 10 µM, batches 4 and 5): highest inhibitory effect
- inhibition at 10 µM ([6]; compared to the control (DMSO), read-out: reduction in PK activity of HepG2 KO protein lysate): 57%
- decrease in PK activity of HepG2 KO cells [8]: 32.8% and 24.4%
- effect on PK activity in HepG2 KO cells (in words) [8]: decreased the PK activity
- increase of the solubility of PKM2 (PKM2 [11]): 12-18%
Compound: O=S1(=O)c2cc(O)c(O)cc2-c2ccc(C(F)(F)F)cc2N1Cc1ccccc1 [SET-62, 6-benzyl-2,'3-dihydroxy-8-(trifluoromethyl)-6H-dibenzo[c,e][1,2]thiazine 5,5-dioxide]
- TAG/MTT reduced to (HepG2 cells [2]; 0.625 µM for one week): 15.0%
- TAG/MTT ratio reduced to (HepG2 cells [2]; 5 µM for one week): 49.4% and 61.3%
- TAG content (in words) (HepG2 cells [2]; 10 µM for 1 week): reduced TAG content
- TAG/MTT ratio (HepG2 cells [2]; 10 µM for 1 week): 92.9%
- PKL protein expression level (PKL [3]): decreased
- FASN protein expression level [5]: decreased
- effect on PK activity in HepG2 WT cells (in words) (pyruvate kinase (PK) [7]): slightly increased the PK activity
- increase in PK activity of HepG2 WT cells (pyruvate kinase (PK) [7]): 6% and 9.0%
- cell viability (in words) (HepG2 cells [9]; 5 µM for 1 week (batch 4)): increased the cell viability
- cell viability (MTT assay, in words) (HepG2 cells [9]; 10 µM for 1 week): decreased cell viability; also recorded: strong toxicity
- cell viability / toxicity (in words) (HepG2 cells [9]; lower doses (5 µM, 2.5 µM, 1.25 µM, 0.625 µM), one week): did not exhibit any toxicity
- expression of PKM2 (PKM2 [10]): slight increase
